Test results taken from paper PMC6230509 (Neuropharmacology, 2018).
Where two headings read alike, the source gives them in different places.

Legend:
5-HT2A = 5-HT2A (Homo sapiens, UniProt P28223); assay: NIMH PDSP radioligand competition binding, 5-HT2A
μ-opioid receptor (MOR) = μ-opioid receptor (MOR) (Homo sapiens, UniProt P35372); assay: NIMH PDSP radioligand competition binding, MOR
5-HT5A = 5-HT5A (Homo sapiens, UniProt P47898); assay: NIMH PDSP radioligand competition binding, 5-HT5A
[1] = test system: head twitch response (5-HT2A receptor-mediated); assay: Head twitch response; format: in vivo, C57BL/6J mice; conditions: for activity in the HTR assay (in words): C57BL/6J mice, IP, within the dose range tested; for ED50: Mus musculus, ip
D5 = D5 (Homo sapiens, UniProt P21918); assay: NIMH PDSP radioligand competition binding, D5
[2] = target: peripheral benzodiazepine receptor (PBR) (Rattus norvegicus, UniProt P16257); assay: NIMH PDSP radioligand competition binding, PBR
[3] = target: dopamine transporter (DAT) (Homo sapiens, UniProt Q01959); assay: NIMH PDSP radioligand competition binding, DAT
5-HT2B = 5-HT2B (Homo sapiens, UniProt P41595); assay: NIMH PDSP radioligand competition binding, 5-HT2B
5-HT7 = 5-HT7 (Homo sapiens, UniProt P34969); assay: NIMH PDSP radioligand competition binding, 5-HT7
H1 = H1 (Homo sapiens, UniProt P35367); assay: NIMH PDSP radioligand competition binding, H1
5-HT2C = target: T1, 5-HT2C (Homo sapiens, UniProt P28335); assay: NIMH PDSP radioligand competition binding, 5-HT2C
T1 sequence (P28335 33-458): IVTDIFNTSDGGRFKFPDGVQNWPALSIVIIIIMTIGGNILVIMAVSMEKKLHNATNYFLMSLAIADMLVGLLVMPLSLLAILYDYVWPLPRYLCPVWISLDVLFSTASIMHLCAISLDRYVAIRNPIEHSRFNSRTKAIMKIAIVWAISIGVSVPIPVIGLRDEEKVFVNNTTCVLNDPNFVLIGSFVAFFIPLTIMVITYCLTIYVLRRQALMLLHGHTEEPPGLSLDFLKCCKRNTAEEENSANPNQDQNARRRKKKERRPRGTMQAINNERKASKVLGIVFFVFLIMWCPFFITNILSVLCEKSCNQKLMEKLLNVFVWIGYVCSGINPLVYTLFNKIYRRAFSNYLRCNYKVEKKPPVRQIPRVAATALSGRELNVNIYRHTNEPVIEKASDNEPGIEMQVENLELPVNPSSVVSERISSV

[4] = target: norepinephrine transporter (NET) (Homo sapiens, UniProt P23975); assay: NIMH PDSP radioligand competition binding, NET
D2 = D2 (Homo sapiens, UniProt P14416); assay: NIMH PDSP radioligand competition binding, D2
δ-opioid receptor (DOR) = δ-opioid receptor (DOR) (Homo sapiens, UniProt P41143); assay: NIMH PDSP radioligand competition binding, DOR
α2A = target: T2, α2A (Homo sapiens, UniProt P08913); assay: NIMH PDSP radioligand competition binding, α2A
T2 sequence (P08913 1-465): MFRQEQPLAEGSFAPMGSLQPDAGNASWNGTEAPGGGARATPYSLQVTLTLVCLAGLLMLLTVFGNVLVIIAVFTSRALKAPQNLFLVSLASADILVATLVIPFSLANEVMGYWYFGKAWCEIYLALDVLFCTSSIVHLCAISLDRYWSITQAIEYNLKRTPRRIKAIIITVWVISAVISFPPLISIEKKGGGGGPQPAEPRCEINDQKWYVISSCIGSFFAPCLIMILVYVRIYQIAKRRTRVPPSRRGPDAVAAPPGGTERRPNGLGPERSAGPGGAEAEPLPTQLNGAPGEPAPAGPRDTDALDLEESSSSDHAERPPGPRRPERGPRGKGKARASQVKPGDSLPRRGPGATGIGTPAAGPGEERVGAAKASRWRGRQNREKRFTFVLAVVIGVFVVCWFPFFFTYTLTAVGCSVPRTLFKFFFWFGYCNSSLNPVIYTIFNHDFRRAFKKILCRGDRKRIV

κ-opioid receptor (KOR) = κ-opioid receptor (KOR) (Homo sapiens, UniProt P41145); assay: NIMH PDSP radioligand competition binding, KOR
D3 = D3 (Homo sapiens, UniProt P35462); assay: NIMH PDSP radioligand competition binding, D3
α1D = target: T3, α1D (Homo sapiens, UniProt P25100); assay: NIMH PDSP radioligand competition binding, α1D
T3 sequence (P25100 1-572): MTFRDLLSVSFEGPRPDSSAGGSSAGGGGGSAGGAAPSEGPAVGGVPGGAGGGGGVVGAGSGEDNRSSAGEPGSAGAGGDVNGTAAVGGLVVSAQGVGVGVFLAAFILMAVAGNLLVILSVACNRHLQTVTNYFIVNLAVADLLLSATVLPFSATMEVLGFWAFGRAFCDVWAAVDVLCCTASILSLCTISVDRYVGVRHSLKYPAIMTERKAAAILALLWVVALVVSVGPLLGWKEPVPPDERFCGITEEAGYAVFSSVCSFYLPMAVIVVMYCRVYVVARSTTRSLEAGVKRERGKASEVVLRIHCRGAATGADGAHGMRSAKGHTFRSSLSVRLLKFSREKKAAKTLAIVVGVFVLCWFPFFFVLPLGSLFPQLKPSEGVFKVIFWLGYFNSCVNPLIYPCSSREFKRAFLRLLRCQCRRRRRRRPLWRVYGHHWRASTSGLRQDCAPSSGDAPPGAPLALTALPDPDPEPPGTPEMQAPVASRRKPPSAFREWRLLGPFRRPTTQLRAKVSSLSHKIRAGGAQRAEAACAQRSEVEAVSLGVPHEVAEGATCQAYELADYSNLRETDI

5-HT1D = 5-HT1D (Homo sapiens, UniProt P28221); assay: NIMH PDSP radioligand competition binding, 5-HT1D
[5] = 0.875 mg/kg IP, duration 30 min
[6] = read-out: ED50 (95% CI) (mg/kg)
[7] = read-out: ED50 (95% CI) (μmol/kg)
[8] = Binding Affinity (Ki, nM), [3H]SCH23390, cloned human receptor
[9] = Binding Affinity (Ki, nM), PBR, [3H]PK11195, rat kidney, natively expressed
[10] = Binding Affinity (Ki, nM), DOR, [3H]DADLE, cloned human receptor

Structure (SMILES)	Ki (5-HT2A) [nM]	Ki (μ-opioid receptor (MOR)) [nM]	Ki (5-HT5A) [nM]	HTR Counts (mean ± SEM) [1, 5]	HTR Counts (mean ± SEM) ([1]; 1.75 mg/kg IP, duration 30 min)	Ki (D5; [8]) [nM]	Ki [2, 9] [nM]	Ki [3] [nM]	Ki (5-HT2B) [nM]	Ki (5-HT7) [nM]	Ki (H1) [nM]	Ki (5-HT2C) [nM]	Ki [4] [nM]	Ki (D2) [nM]	Ki (δ-opioid receptor (DOR); [10]) [nM]	Ki (α2A) [nM]	Ki (κ-opioid receptor (KOR)) [nM]	Ki (D3) [nM]	Ki (α1D) [nM]	Ki (5-HT1D) [nM]	further results
C=CCN(CC=C)CCc1c[nH]c2cccc(OC(C)=O)c12 [4-AcO-DALT, 4-acetoxy-N,N-diallyltryptamine]	565	> 10000	5840	10.4 ± 1.4	42.0 ± 9.5	> 10000	> 10000	> 10000	63	724	353	1520	> 10000	> 10000	> 10000	342	5230	> 10000	> 10000	801	HTR Counts (mean ± SEM) ([1]; 3.5 mg/kg IP, duration 30 min): 39.0 ± 14.1; HTR Counts (mean ± SEM) ([1]; 7 mg/kg IP, duration 30 min): 65.0 ± 8.4; HTR Counts (mean ± SEM) ([1]; 14 mg/kg IP, duration 30 min): 47.8 ± 10.0; activity in the HTR assay (in words) [1]: active; ED50 [1, 6]: 1.99 mg/kg; ED50 [1, 7]: 4.8 µmol/kg
C=CCN(CC=C)CCc1c(C)[nH]c2ccc(F)cc12 [5-F-2-Me-DALT, 5-fluoro-2-methyl-N,N-diallyltryptamine]	655	> 10000	1920	6.2 ± 1.0	6.8 ± 0.9	> 10000	> 10000	2210	17	493	435	541	> 10000	4420	> 10000	53	580	414	> 10000	1590	HTR Counts (mean ± SEM) ([1]; 3.5 mg/kg IP, duration 30 min): 5.8 ± 2.5; HTR Counts (mean ± SEM) ([1]; 7 mg/kg IP, duration 30 min): 6.4 ± 1.6; HTR Counts (mean ± SEM) ([1]; 14 mg/kg IP, duration 30 min): 7.2 ± 0.8; activity in the HTR assay (in words) ([1]; listed as 5-fluoro-2-methyl-DALT): did not induce the HTR
C=CCN(CC=C)CCc1c[nH]c2cccc(O)c12 [4-HO-DALT, 4-hydroxy-N,N-diallyltryptamine]	652	> 10000	> 10000	–	–	> 10000	> 10000	> 10000	2590	600	> 10000	2110	> 10000	> 10000	> 10000	1210	> 10000	1570	> 10000	693	HTR Counts (mean ± SEM) ([1]; 0.875 mg/kg IP, duration 5 min): 4.0 ± 3.3; HTR Counts (mean ± SEM) ([1]; 1.75 mg/kg IP, duration 5 min): 9.2 ± 3.7; HTR Counts (mean ± SEM) ([1]; 3.5 mg/kg IP, duration 5 min): 28.6 ± 4.1; HTR Counts (mean ± SEM) ([1]; 7 mg/kg IP, duration 5 min): 31.6 ± 4.9; HTR Counts (mean ± SEM) ([1]; 14 mg/kg IP, duration 5 min): 24.6 ± 4.7; activity in the HTR assay (in words) [1]: active; ED50 [1, 6]: 2.6 mg/kg; ED50 [1, 7]: 8.3 µmol/kg
C=CCN(CC=C)CCc1c[nH]c2c(CC)cccc12 [7-Et-DALT, 7-ethyl-N,N-diallyltryptamine]	1520	2670	> 10000	–	–	> 10000	> 10000	1730	65	> 10000	913	443	1880	> 10000	> 10000	141	580	1080	> 10000	2690	HTR Counts (mean ± SEM) ([1]; 15 mg/kg IP, duration 30 min): 9.8 ± 1.8; activity in the HTR assay (in words) [1]: did not induce the HTR
C=CCN(CC=C)CCc1c(C)[nH]c2ccc(OC)cc12 [5-MeO-2-Me-DALT, 5-methoxy-2-methyl-N,N-diallyltryptamine]	1150	> 10000	1820	4.4 ± 0.2	7.4 ± 2.2	> 10000	> 10000	2410	241	> 10000	847	> 10000	> 10000	> 10000	> 10000	189	391	2400	2410	900	HTR Counts (mean ± SEM) ([1]; 3.5 mg/kg IP, duration 30 min): 4.2 ± 1.0; HTR Counts (mean ± SEM) ([1]; 7 mg/kg IP, duration 30 min): 4.2 ± 0.9; HTR Counts (mean ± SEM) ([1]; 14 mg/kg IP, duration 30 min): 5.0 ± 1.4; activity in the HTR assay (in words) ([1]; listed as 5-methoxy-2-methyl-DALT): did not induce the HTR
C=CCN(CC=C)CCc1c(-c2ccccc2)[nH]c2ccccc12 [2-Ph-DALT, 2-phenyl-N,N-diallyltryptamine]	13	> 10000	1670	2.8 ± 0.5	3.6 ± 1.3	2000	1930	746	192	> 10000	79	278	420	388	6790	85	589	342	243	204	5-HT2A binding affinity, fold higher than the affinity of DALT (5-HT2A): 54 fold; 5-HT2A binding affinity, fold higher than the affinity of any other DALT derivative (5-HT2A; relative to any other DALT derivative): at least 10 fold; HTR Counts (mean ± SEM) ([1]; 3.5 mg/kg IP, duration 30 min): 1.4 ± 0.5; HTR Counts (mean ± SEM) ([1]; 7 mg/kg IP, duration 30 min): 2.0 ± 0.5; HTR Counts (mean ± SEM) ([1]; 14 mg/kg IP, duration 30 min): 1.2 ± 0.5; activity in the HTR assay (in words) [1]: abolished activity; activity in the HTR assay (in words) ([1]; listed as 2-Phenyl-DALT): did not induce the HTR; Ki (D5; Ki value, bound stated): < 10000 nM; Ki ([2]; Ki value, peripheral benzodiazepine receptors, bound stated): < 10000 nM; Ki (δ-opioid receptor (DOR); Ki value, δ-opioid, bound stated): < 10000 nM
